Laboratory results published in ChEMBL document CHEMBL4507309 (2021).

Experiments:
[1] = target: 5-hydroxytryptamine receptor 1A (Homo sapiens, UniProt P08908); assay: GPCRScan assay: inhibition of 5-HT1A; design: radioligand conc. used [nm] 0.5 – 1.0, parental cells stable CHO
[2] = target: T1, 5-hydroxytryptamine receptor 1B (Homo sapiens, UniProt P28222); assay: GPCRScan assay: inhibition of 5-HT1B; design: radioligand conc. used [nm] 0.6 – 1.5, parental cells stable HEK
[3] = target: T2, 5-hydroxytryptamine receptor 1D (Homo sapiens, UniProt P28221); assay: GPCRScan assay: inhibition of 5-HT1D; design: radioligand conc. used [nm] 1.0 – 2.0, parental cells HEKT
T2 sequence (P28221 whole entry): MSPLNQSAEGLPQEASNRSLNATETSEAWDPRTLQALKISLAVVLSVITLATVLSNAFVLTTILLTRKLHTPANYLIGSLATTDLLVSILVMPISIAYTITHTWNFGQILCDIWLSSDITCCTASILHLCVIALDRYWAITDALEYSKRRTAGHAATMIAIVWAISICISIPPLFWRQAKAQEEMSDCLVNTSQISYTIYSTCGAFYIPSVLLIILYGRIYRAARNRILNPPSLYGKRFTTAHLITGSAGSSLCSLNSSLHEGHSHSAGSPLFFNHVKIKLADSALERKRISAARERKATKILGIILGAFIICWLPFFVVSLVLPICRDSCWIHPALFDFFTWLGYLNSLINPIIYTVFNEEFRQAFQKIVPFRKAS

[4] = target: T3, 5-hydroxytryptamine receptor 2A (Homo sapiens, UniProt P28223); assay: GPCRScan assay: inhibition of 5-HT2A; design: radioligand conc. used [nm] 1.2 – 2.4, parental cells HEKT
[5] = target: T4, 5-hydroxytryptamine receptor 2B (Homo sapiens, UniProt P41595); assay: GPCRScan assay: inhibition of 5-HT2B; design: radioligand conc. used [nm] 1.0 – 2.0, parental cells stable HEK
T4 sequence (P41595 whole entry): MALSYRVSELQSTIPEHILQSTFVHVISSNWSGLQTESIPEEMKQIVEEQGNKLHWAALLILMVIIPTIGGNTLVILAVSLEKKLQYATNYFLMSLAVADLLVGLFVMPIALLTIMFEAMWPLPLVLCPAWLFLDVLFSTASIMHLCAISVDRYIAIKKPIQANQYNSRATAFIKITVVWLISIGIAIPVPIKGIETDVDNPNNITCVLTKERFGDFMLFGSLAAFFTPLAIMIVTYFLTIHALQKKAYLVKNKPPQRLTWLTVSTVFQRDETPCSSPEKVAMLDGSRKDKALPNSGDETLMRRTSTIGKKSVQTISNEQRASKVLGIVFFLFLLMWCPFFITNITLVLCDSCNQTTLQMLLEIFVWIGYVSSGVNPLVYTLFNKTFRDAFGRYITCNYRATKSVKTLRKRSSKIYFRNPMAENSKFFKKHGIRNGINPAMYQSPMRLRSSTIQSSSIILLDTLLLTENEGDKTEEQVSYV

[6] = target: 5-hydroxytryptamine receptor 2C (Homo sapiens, UniProt P28335); assay: GPCRScan assay: inhibition of 5-HT2C; design: radioligand conc. used [nm] 1.0 – 2.5, parental cells HEK T
[7] = target: 5-hydroxytryptamine receptor 3A (Homo sapiens, UniProt P46098); assay: GPCRScan assay: inhibition of 5-HT3; design: radioligand conc. used [nm] 1.0 – 2.0, parental cells HEKT
[8] = target: T5, 5-hydroxytryptamine receptor 5A (Homo sapiens, UniProt P47898); assay: GPCRScan assay: inhibition of 5-HT5A; design: radioligand conc. used [nm] 2.0 - 3.3, parental cells Flp-In CHO
T5 sequence (P47898 whole entry): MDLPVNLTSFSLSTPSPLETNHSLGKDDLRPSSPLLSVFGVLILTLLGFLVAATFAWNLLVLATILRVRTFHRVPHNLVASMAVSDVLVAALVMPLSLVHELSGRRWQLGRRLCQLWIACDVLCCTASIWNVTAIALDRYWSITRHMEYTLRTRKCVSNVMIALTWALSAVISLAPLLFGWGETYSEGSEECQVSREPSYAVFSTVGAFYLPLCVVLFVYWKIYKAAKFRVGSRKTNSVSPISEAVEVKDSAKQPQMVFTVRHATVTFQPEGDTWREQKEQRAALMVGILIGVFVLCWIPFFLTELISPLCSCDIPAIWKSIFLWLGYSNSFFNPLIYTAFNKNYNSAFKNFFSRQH

[9] = target: T6, 5-hydroxytryptamine receptor 6 (Homo sapiens, UniProt P50406); assay: GPCRScan assay: inhibition of 5-HT6; design: radioligand conc. used [nm] 2.0 – 4.0, parental cells stable HEK
T6 sequence (P50406 whole entry): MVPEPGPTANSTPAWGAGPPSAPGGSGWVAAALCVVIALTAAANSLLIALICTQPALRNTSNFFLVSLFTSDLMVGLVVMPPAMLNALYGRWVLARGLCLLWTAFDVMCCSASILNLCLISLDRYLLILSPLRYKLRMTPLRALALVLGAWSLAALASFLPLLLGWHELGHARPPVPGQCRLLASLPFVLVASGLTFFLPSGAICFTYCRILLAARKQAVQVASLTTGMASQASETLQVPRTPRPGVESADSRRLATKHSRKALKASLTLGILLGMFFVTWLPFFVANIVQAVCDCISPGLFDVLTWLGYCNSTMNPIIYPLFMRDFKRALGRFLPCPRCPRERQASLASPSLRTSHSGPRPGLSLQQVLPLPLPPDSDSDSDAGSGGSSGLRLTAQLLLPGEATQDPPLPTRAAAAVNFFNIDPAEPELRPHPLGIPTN

[10] = target: T7, 5-hydroxytryptamine receptor 7 (Homo sapiens, UniProt P34969); assay: GPCRScan assay: inhibition of 5-HT7A; design: radioligand conc. used [nm] 5.0 – 6.0, parental cells Stable HEK
D(1A) dopamine receptor [11] = target: T8, D(1A) dopamine receptor (Homo sapiens, UniProt P21728); assay: GPCRScan assay: inhibition of D1; design: radioligand conc. used [nm] 0.6 – 1.3, parental cells HEKT
T8 sequence (P21728 whole entry): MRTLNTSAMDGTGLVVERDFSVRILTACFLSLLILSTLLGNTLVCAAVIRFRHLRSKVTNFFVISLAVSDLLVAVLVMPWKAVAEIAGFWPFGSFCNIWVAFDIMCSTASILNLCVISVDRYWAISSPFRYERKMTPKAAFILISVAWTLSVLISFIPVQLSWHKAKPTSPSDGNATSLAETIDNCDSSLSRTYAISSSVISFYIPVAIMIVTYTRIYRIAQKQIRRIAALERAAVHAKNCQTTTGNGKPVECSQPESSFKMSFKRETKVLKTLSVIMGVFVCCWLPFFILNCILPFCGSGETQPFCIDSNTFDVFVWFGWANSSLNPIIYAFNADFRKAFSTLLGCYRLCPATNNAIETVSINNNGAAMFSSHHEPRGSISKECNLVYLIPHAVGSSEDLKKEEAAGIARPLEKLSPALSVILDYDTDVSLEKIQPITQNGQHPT

[12] = target: T9, Sodium-dependent dopamine transporter (Homo sapiens, UniProt Q01959); assay: GPCRScan assay: inhibition of DAT; design: radioligand conc. used [nm] 3.6 – 16.0, parental cells stable HEK
T9 sequence (Q01959 whole entry): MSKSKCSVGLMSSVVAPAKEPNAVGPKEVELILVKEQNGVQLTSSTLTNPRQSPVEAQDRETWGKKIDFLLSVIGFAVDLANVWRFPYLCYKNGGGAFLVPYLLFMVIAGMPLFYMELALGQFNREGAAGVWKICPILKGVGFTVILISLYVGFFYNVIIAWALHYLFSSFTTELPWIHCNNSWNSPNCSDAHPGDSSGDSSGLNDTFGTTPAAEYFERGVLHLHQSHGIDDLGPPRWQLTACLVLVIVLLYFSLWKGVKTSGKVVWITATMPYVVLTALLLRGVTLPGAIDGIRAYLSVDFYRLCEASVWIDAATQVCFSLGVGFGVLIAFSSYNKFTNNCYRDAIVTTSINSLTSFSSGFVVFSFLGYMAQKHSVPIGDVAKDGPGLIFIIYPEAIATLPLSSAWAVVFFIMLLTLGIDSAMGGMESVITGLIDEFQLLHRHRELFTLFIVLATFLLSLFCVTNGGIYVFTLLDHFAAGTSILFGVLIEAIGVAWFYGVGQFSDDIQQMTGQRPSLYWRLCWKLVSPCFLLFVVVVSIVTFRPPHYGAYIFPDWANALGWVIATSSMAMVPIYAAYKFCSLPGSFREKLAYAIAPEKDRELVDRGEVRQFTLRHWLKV

[13] = target: T10, Kappa-type opioid receptor (Homo sapiens, UniProt P41145); assay: GPCRScan assay: inhibition of KOR; design: radioligand conc. used [nm] 0.6 – 1.2, parental cells stable HEK
T10 sequence (P41145 whole entry): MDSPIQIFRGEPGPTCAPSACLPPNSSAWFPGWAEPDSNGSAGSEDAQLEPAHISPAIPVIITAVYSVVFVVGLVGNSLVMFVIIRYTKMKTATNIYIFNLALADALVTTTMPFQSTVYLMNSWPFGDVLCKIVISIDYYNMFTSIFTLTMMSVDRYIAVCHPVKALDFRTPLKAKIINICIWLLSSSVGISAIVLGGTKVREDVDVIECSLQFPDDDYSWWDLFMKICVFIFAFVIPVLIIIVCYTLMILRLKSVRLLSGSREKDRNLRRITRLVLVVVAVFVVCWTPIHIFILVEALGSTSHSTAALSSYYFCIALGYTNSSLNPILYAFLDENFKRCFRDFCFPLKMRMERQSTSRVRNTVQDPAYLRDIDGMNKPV

Histamine H1 receptor [14] = target: T11, Histamine H1 receptor (Homo sapiens, UniProt P35367); assay: GPCRScan assay: inhibition of H1; design: radioligand conc. used [nm] 0.6 – 2.0, parental cells stable HEK
T11 sequence (P35367 whole entry): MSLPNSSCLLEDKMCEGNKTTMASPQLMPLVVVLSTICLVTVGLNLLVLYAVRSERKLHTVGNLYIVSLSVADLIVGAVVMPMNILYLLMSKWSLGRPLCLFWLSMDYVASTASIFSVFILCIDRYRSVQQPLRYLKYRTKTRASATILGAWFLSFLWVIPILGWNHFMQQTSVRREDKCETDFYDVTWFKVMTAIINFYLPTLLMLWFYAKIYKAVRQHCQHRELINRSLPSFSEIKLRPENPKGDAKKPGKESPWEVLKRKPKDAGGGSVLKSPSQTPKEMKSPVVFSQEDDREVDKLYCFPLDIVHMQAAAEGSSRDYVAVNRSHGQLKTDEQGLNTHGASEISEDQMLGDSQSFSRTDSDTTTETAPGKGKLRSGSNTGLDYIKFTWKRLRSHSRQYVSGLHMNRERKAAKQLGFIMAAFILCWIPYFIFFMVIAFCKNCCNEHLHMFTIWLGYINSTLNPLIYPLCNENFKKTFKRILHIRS

Histamine H2 receptor [15] = target: T12, Histamine H2 receptor (Homo sapiens, UniProt P25021); assay: GPCRScan assay: inhibition of H2; design: radioligand conc. used [nm] 0.02 – 0.05, parental cells Stable HEK
T12 sequence (P25021 whole entry): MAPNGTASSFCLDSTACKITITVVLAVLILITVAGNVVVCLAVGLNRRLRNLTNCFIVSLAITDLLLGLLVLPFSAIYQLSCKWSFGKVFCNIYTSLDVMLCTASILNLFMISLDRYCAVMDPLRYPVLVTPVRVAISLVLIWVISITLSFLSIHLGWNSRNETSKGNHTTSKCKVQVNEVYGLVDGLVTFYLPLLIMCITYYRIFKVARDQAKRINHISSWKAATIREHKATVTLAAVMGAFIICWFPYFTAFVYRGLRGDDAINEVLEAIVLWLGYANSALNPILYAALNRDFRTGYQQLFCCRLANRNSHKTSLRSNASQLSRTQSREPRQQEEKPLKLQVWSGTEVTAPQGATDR

[16] = target: Alpha-2B adrenergic receptor (Homo sapiens, UniProt P18089); assay: GPCRScan assay: inhibition of Alpha2B; design: radioligand conc. used [nm] 1.5 – 2.0, parental cells HEKT
Chain of Alpha-2B adrenergic receptor (P18089 whole entry): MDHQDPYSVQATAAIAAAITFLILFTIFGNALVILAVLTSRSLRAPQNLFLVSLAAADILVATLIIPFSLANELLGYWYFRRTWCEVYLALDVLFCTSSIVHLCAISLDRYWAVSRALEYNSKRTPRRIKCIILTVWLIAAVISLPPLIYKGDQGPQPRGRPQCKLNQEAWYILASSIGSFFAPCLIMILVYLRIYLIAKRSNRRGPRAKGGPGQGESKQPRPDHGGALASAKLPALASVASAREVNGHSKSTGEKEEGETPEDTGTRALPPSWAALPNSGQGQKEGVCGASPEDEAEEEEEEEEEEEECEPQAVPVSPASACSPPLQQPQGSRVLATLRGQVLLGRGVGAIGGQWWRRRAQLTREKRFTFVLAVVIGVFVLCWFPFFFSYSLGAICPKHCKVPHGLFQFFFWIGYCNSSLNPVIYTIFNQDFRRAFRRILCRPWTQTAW

[17] = target: Muscarinic acetylcholine receptor M1 (Homo sapiens, UniProt P11229); assay: GPCRScan assay: inhibition of M1; design: radioligand conc. used [nm] 0.3 – 1.2, parental cells stable CHO
[18] = target: Muscarinic acetylcholine receptor M2 (Homo sapiens, UniProt P08172); assay: GPCRScan assay: inhibition of M2; design: radioligand conc. used [nm] 0.2 – 1.0, parental cells stable CHO
[19] = target: T13, Sigma intracellular receptor 2 (Homo sapiens, UniProt Q5BJF2); assay: GPCRScan assay: inhibition of Sigma 2; design: radioligand conc. used [nm] 5.0, parental cells HEKT
[20] = target: Glutamate [NMDA] receptor (Homo sapiens) (UniProt Q05586+Q12879+Q13224+O15399+O60391+Q14957+Q8TCU5); assay: (§1) GPCRScan assay: inhibition of NMDA; type: protein-complex assay; design: radioligand conc. used [nm] 1.4 – 13.0; details: Compound concentration 10.0 uM
[21] = target: Glutamate [NMDA] receptor; assay: as §1; type: protein-complex assay, Homo sapiens; design: radioligand conc. used [nm] 1.4 – 13.0
[22] = target: 5-hydroxytryptamine receptor 4 (Homo sapiens, UniProt Q13639); assay: GPCRScan assay: inhibition of 5-HT4; design: radioligand conc. used [nm] 0.5 – 2.0, parental cells HEK T
[23] = target: 5-hydroxytryptamine receptor 1A (Homo sapiens) (UniProt P08908); details: Compound concentration 10.0 uM
[24] = target: T1, 5-hydroxytryptamine receptor 1B; details: Compound concentration 10.0 uM
[25] = target: T2, 5-hydroxytryptamine receptor 1D; details: Compound concentration 10.0 uM
[26] = target: T3, 5-hydroxytryptamine receptor 2A; details: Compound concentration 10.0 uM
[27] = target: T4, 5-hydroxytryptamine receptor 2B; details: Compound concentration 10.0 uM
[28] = target: 5-hydroxytryptamine receptor 2C (Homo sapiens) (UniProt P28335); details: Compound concentration 10.0 uM
[29] = target: 5-hydroxytryptamine receptor 3A (Homo sapiens) (UniProt P46098); details: Compound concentration 10.0 uM
[30] = target: T5, 5-hydroxytryptamine receptor 5A; details: Compound concentration 10.0 uM
[31] = target: T6, 5-hydroxytryptamine receptor 6; details: Compound concentration 10.0 uM
[32] = target: T7, 5-hydroxytryptamine receptor 7; details: Compound concentration 10.0 uM
D(1A) dopamine receptor [33] = target: T8, D(1A) dopamine receptor; details: Compound concentration 10.0 uM
[34] = target: D(2) dopamine receptor (Homo sapiens) (UniProt P14416); details: Compound concentration 10.0 uM
[35] = target: D(3) dopamine receptor (Homo sapiens) (UniProt P35462); details: Compound concentration 10.0 uM
[36] = target: D(1B) dopamine receptor (Homo sapiens) (UniProt P21918); details: Compound concentration 10.0 uM
[37] = target: Sodium-dependent serotonin transporter (Homo sapiens) (UniProt P31645); details: Compound concentration 10.0 uM
[38] = target: Sodium-dependent noradrenaline transporter (Homo sapiens) (UniProt P23975); details: Compound concentration 10.0 uM
[39] = target: T9, Sodium-dependent dopamine transporter; details: Compound concentration 10.0 uM
[40] = target: Mu-type opioid receptor (Homo sapiens) (UniProt P35372); details: Compound concentration 10.0 uM
[41] = target: Delta-type opioid receptor (Homo sapiens) (UniProt P41143); details: Compound concentration 10.0 uM
[42] = target: T10, Kappa-type opioid receptor; details: Compound concentration 10.0 uM
[43] = target: T14, GABA-A receptor; anion channel (Rattus norvegicus) (UniProt O09028+P15431+P18506+P18508+P19969+P20236+P23574+P23576+P28471+P28473+P30191+P62813+P63079+P63138+Q91ZM7+Q9ES14); details: Compound concentration 10.0 uM
Histamine H1 receptor [44] = target: T11, Histamine H1 receptor; details: Compound concentration 10.0 uM
Histamine H2 receptor [45] = target: T12, Histamine H2 receptor; details: Compound concentration 10.0 uM
[46] = target: Histamine H4 receptor (Homo sapiens) (UniProt Q9H3N8); details: Compound concentration 10.0 uM
[47] = target: Alpha-1A adrenergic receptor (Homo sapiens) (UniProt P35348); details: Compound concentration 10.0 uM
[48] = target: Alpha-1B adrenergic receptor (Homo sapiens) (UniProt P35368); details: Compound concentration 10.0 uM
[49] = target: Alpha-2A adrenergic receptor (Homo sapiens) (UniProt P08913); details: Compound concentration 10.0 uM
[50] = target: Alpha-2B adrenergic receptor (Homo sapiens) (UniProt P18089); details: Compound concentration 10.0 uM
Chain of Alpha-2B adrenergic receptor (Homo sapiens) (P18089 whole entry): as above

[51] = target: Alpha-2C adrenergic receptor (Homo sapiens) (UniProt P18825); details: Compound concentration 10.0 uM
[52] = target: Beta-1 adrenergic receptor (Homo sapiens) (UniProt P08588); details: Compound concentration 10.0 uM
[53] = target: Beta-2 adrenergic receptor (Homo sapiens) (UniProt P07550); details: Compound concentration 10.0 uM
[54] = target: Muscarinic acetylcholine receptor M1 (Homo sapiens) (UniProt P11229); details: Compound concentration 10.0 uM
[55] = target: Muscarinic acetylcholine receptor M2 (Homo sapiens) (UniProt P08172); details: Compound concentration 10.0 uM
[56] = target: Muscarinic acetylcholine receptor M3 (Homo sapiens) (UniProt P20309); details: Compound concentration 10.0 uM
[57] = target: Muscarinic acetylcholine receptor M5 (Homo sapiens) (UniProt P08912); details: Compound concentration 10.0 uM
[58] = target: Beta-3 adrenergic receptor (Homo sapiens) (UniProt P13945); details: Compound concentration 10.0 uM
[59] = target: T14, GABA-A receptor; anion channel (Rattus norvegicus); details: Compound concentration 10.0 uM; remark: listed apart in the source
Rattus norvegicus = species: Rattus norvegicus; details: Compound concentration 10.0 uM
[60] = target: Alpha-1D adrenergic receptor (Homo sapiens) (UniProt P25100); details: Compound concentration 10.0 uM
[61] = target: T13, Sigma intracellular receptor 2; details: Compound concentration 10.0 uM
[62] = target: Sigma non-opioid intracellular receptor 1 (Homo sapiens) (UniProt Q99720); details: Compound concentration 10.0 uM

T1 sequence (P28222 whole entry): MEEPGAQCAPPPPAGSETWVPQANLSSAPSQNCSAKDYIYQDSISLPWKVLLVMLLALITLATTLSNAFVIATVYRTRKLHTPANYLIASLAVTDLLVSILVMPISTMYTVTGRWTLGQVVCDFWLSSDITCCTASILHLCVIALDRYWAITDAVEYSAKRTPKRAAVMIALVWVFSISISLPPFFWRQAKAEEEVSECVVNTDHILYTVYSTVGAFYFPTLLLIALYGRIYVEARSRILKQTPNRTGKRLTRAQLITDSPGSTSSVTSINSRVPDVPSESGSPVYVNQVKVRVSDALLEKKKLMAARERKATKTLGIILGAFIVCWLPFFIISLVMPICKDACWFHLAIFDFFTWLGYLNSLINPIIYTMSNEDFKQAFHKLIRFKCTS

## Cc1ccc2nc(CNCCCOc3ccccc3)cc(O)c2c1 [UCSF924]
[1]; read-out: Ki
  Ki: 0.223 µM
[1]; read-out: pKi (converted)
  Ki: 0.214 µM
[2]; read-out: Ki
  Ki: 3.41 µM
[2]; read-out: pKi (converted)
  Ki: 3.31 µM
[3]; read-out: Ki
  Ki: 3.25 µM
[3]; read-out: pKi (converted)
  Ki: 3.14 µM
[4]
  Ki: 3.28 µM
[5]; read-out: Ki
  Ki: 0.237 µM
[5]; read-out: pKi (converted)
  Ki: 0.224 µM
[6]
  Ki: 5.55 µM
[7]; read-out: Ki
  Ki: 3.99 µM
[7]; read-out: pKi (converted)
  Ki: 3.72 µM
[8]; read-out: Ki
  Ki: 5.82 µM
[8]; read-out: pKi (converted)
  Ki: 5.62 µM
[9]
  Ki: 6.68 µM
[10]
  Ki: 2.08 µM
D(1A) dopamine receptor [11]
  Ki: 3.42 µM
[12]; read-out: Ki
  Ki: 2.12 µM
[12]; read-out: pKi (converted)
  Ki: 1.62 µM
[13]; read-out: Ki
  Ki: 2.31 µM
[13]; read-out: pKi (converted)
  Ki: 2.19 µM
Histamine H1 receptor [14]; read-out: Ki
  Ki: 4.55 µM
Histamine H1 receptor [14]; read-out: pKi (converted)
  Ki: 4.68 µM
Histamine H2 receptor [15]; read-out: Ki
  Ki: 1.91 µM
Histamine H2 receptor [15]; read-out: pKi (converted)
  Ki: 1.78 µM
[16]; read-out: Ki
  Ki: 3.04 µM
[16]; read-out: pKi (converted)
  Ki: 2.57 µM
[17]
  Ki: 4.05 µM
[18]
  Ki: 4.43 µM
[19]
  Ki: 1.89 µM
[20]
  inhibition: 0%
[21]
  Ki: 1 µM
[22]
  Ki: 6.69 µM
[22]; Compound concentration 10.0 uM
  inhibition: 0%
[23]
  inhibition: 72.1%
[24]
  inhibition: 17.7%
[25]
  inhibition: 58.6%
[26]
  inhibition: 19.9%
[27]
  inhibition: 80%
[28]
  inhibition: 31.7%
[29]
  inhibition: 55%
[30]
  inhibition: 28.8%
[31]
  inhibition: 23%
[32]
  inhibition: 60%
D(1A) dopamine receptor [33]
  inhibition: 3.15%
[34]
  inhibition: 8.56%
[35]
  inhibition: 5.75%
[36]
  inhibition: 16.7%
[37]
  inhibition: 35.4%
[38]
  inhibition: 26.2%
[39]
  inhibition: 52.1%
[40]
  inhibition: 39.7%
[41]
  inhibition: 22.5%
[42]
  inhibition: 48.4%
[43]
  inhibition: 1.68%
Histamine H1 receptor [44]
  inhibition: 25.5%
Histamine H2 receptor [45]
  inhibition: 24.8%
[46]
  inhibition: 0.51%
[47]
  inhibition: 23%
[48]
  inhibition: 16.5%
[49]
  inhibition: 17.6%
[50]
  inhibition: 21.8%
[51]
  inhibition: 44.7%
[52]
  inhibition: 18.8%
[53]
  inhibition: 33.3%
[54]
  inhibition: 12.4%
[55]
  inhibition: 22%
[56]
  inhibition: -3.52%
[57]
  inhibition: 15.5%
[58]
  inhibition: 11.6%
[59]
  inhibition: 4.11%
Rattus norvegicus
  inhibition: 8.58%
[60]
  inhibition: 25.4%
[61]
  inhibition: 50.3%
[62]
  inhibition: 3.82%
